In patent publication US12528840B2, “Transcription active complex targeting cancer drug from viral protein sequence” (The Regents of the University of California, priority 2020, dated 2026):

Test system: BCBL-1 cells
Conditions: MTT, compared to Mut d1-1 control peptide
Text: FIG. 8. Amino acid conservation among different gamma-herpesviral transactivator proteins. […] DE; D substitute to glutamic acid, DS: D substituted for serine. ST; serine substituted for threonine (marked in red).
Amino acid sequence alignment identified homologous protein sequences in other gamma-herpesvirus protein sequence (The Top table in FIG. 8a, also shown in FIG. 2). Based on their alignment, “non-natural” protein sequences were generated by substituting specific amino acids (The peptides are: Wt d1-1, DS 3-1, DE 3-1, and Mut d1-1 (control peptide) from the top to the bottom in the Bottom Table in FIG. 8a). Those four peptides were used in MTT assays in FIG. 8b to examine the effects on cell growth of BCBL-1 […] effusion lymphoma (PEL) cell line. Also tested are three D-amino acid substitutions first two amino acids and c-terminal amino acid (ST d3-1), in comparison with one D-amino acid peptide (N-terminus) (Wt d3-1).

Substance	killing of BCBL-1 cells in vitro
d-Arg-KKRR-Ornithine-RRR-B-alanine-LSSILQGLYQL-d-Asp-d Glu [DE 3-1]	killed BCBL-1 cells in vitro at similar efficacies
d-Arg-KKRR-Ornithine-RRR-B-alanine-LSSILQGLYQL-d-Asp-d Ser [DS 3-1]	killed BCBL-1 cells in vitro at similar efficacies
d-Arg-KKRR-Ornithine-RRR-B-alanine-LSSILQGLYQL-d-Asp-d Thr [Wt d3-1]	killed BCBL-1 cells in vitro at similar efficacies
d-Arg-KKRR-Ornithine-RRR-B-alanine-LSTILQGLYQL-d-Asp-d Thr [ST d3-1]	killed BCBL-1 cells in vitro at similar efficacies
d-Arg-KKRR-Ornithine-RRR-β-alanine-LSSILQGLYQLDT [Wt d1-1]	killed BCBL-1 cells in vitro at similar efficacies
